# In patent US11617726B2, “Method for preventing, treating, or ameliorating a microbial infection” (priority 2018, dated 2023):
# Test system: Acinetobacter baumannii isolates
# Experiment: Antimicrobial susceptibility test, disc diffusion method (CLSI M100-S24)
# Type: cell-based
# Design: key to Inhibition zone: “NZ” indicated that no zone of inhibition was observed
# Conditions: for susceptibility category: ATM disc; for Inhibition zone: disc diffusion
# Description: A total of 33 non-duplicate, non-consecutive clinical isolates of Multi-Drug Resistant (MDR) Acinetobacter baumannii were collected from burn wards (“AB1-AB33”). Acinetobacter baumannii ATCC BAA 747 and Pseudomonas aeruginosa ATCC 27853 were used as control strains. The isolates were stored at −80° C. in trypticase soy broth containing 20% glycerol.
# Antimicrobial susceptibility tests of the collection of isolates were conducted using the disc diffusion method. The experiment was performed according to the recommendations and guidelines of Clinical Laboratory Standard Institutes (CLSI M100-S24; 2014). Clinical and Laboratory Standards Institute (CLSI), “Performance standards for antimicrobial susceptibility testing; twenty-fourth informational supplement,” Document M100-S24, Clinical and Laboratory Standards Institute (CLSI), Wayne, Pa., USA, 2014.
# A panel of commercial antibiotic discs (Amoxicillin (AMX), Amoxicillin/clavulanic acid (AMX/CLA), Piperacillin (PIP), Piperacillin/Tazobactam (PIP/TAZ), Ceftazidime (CAZ), Cefotaxime (CTX), Cefepime (FEP), Cefoxitin (FOX), Aztreonam (ATM), Imipenem (IP), Gentamicin (GEN), Amikacin (AK), Neomycin (NEO), Levofloxacin (LEV), Chloramphenicol (CHL), Tetracycline (TET), sulfamethoxazole/trimethoprim (SUL/TRI) was used for susceptibility testing. All commercial antibiotic discs were purchased from BBL (Becton Dickinson, USA).
# Forty grams of Mueller-Hinton Agar (MHA) were suspended in 1 Liter distilled water and then boiled to dissolve the powder completely. The medium was sterilized by autoclaving at 121° C. for 15 min. After autoclaving, the medium was cooled to 45° C. and 25 mL of molten agar media was poured into sterile Petri dishes (90 mm diameter) to give a depth of about 4 mm. The surface of the agar was dried to remove excess moisture before use. The plates were stored at 4-8° C. in sealed plastic bags if not used immediately.
# The inoculum suspension was prepared by selecting three to five morphologically similar colonies from overnight growth (16-24 h of incubation) on blood agar medium. […] The suspension density was measured using a UV spectrophotometer calibrated with a 0.5 McFarland standard. The density of the suspension was adjusted to McFarland 0.5 by addition of saline or more microorganisms. The adjusted inoculum suspension was used within 60 min of preparation.
# A sterile cotton swab was dipped into the bacterial suspension and the excess fluid was removed by turning the swab against the inside wall of the tube to avoid over-inoculation of plates. The inoculum was spread evenly over the entire surface of the agar plate by swabbing in three directions.
# The predetermined panel of antimicrobial disks was applied firmly on the inoculated Mueller-Hinton agar surface within 15 min of inoculation of the plates by a disc dispenser device. A maximum of six disks were accommodated on a 90-mm circular plate.
# Within 15 min of application of antimicrobial disks, the plates were inverted and incubated aerobically at 35-37° C. for 18-20 h.
# After incubation, inhibition zones were measured at the point where no obvious growth is detected by the unaided eye when the plate is held about 30 cm from the eye. Inhibition zone diameters were measured to the nearest millimeter with a ruler. The plates were read from the back of the plate with reflected light against a dark background. Zone diameters were interpreted and categorized as susceptible “S”, intermediate “I”, or resistant “R” according to the CLSI clinical breakpoint tables (see Table 1 and Table 2).
smiles,measurement,setting,value
"C[C@H]1[C@H](NC(=O)/C(=N\OC(C)(C)C(=O)O)c2csc(N)n2)C(=O)N1S(=O)(=O)O [ATM, Aztreonam]",susceptibility category,isolate AB1,R (Resistant ≤15)
same,Inhibition zone,isolate AB1,NZ
same,susceptibility category,isolate AB2,R (Resistant ≤15)
same,Inhibition zone,isolate AB2,NZ
same,susceptibility category,isolate AB3,R (Resistant ≤15)
same,Inhibition zone,isolate AB3,NZ
same,susceptibility category,isolate AB4,R (Resistant ≤15)
same,Inhibition zone,isolate AB4,NZ
same,susceptibility category,isolate AB5,R (Resistant ≤15)
same,Inhibition zone,isolate AB5,NZ
same,susceptibility category,isolate AB6,S (Sensitive ≥22)
same,Inhibition zone,isolate AB6,20 mm
same,susceptibility category,isolate AB7,R (Resistant ≤15)
same,Inhibition zone,isolate AB7,NZ
same,susceptibility category,isolate AB8,R (Resistant ≤15)
same,Inhibition zone,isolate AB8,NZ
same,susceptibility category,isolate AB9,R (Resistant ≤15)
same,Inhibition zone,isolate AB9,NZ
same,susceptibility category,isolate AB10,R (Resistant ≤15)
same,Inhibition zone,isolate AB10,13 mm
same,susceptibility category,isolate AB11,R (Resistant ≤15)
same,Inhibition zone,isolate AB11,NZ
same,susceptibility category,isolate AB12,R (Resistant ≤15)
same,Inhibition zone,isolate AB12,NZ
same,susceptibility category,isolate AB13,R (Resistant ≤15)
same,Inhibition zone,isolate AB13,NZ
same,susceptibility category,isolate AB14,R (Resistant ≤15)
same,Inhibition zone,isolate AB14,NZ
same,susceptibility category,isolate AB15,R (Resistant ≤15)
same,Inhibition zone,isolate AB15,11 mm
same,susceptibility category,isolate AB16,S (Sensitive ≥22)
same,Inhibition zone,isolate AB16,33 mm
same,susceptibility category,isolate AB17,R (Resistant ≤15)
same,Inhibition zone,isolate AB17,15 mm
same,susceptibility category,isolate AB18,R (Resistant ≤15)
same,Inhibition zone,isolate AB18,10 mm
same,susceptibility category,isolate AB19,R (Resistant ≤15)
same,Inhibition zone,isolate AB19,8 mm
same,susceptibility category,isolate AB20,R (Resistant ≤15)
same,Inhibition zone,isolate AB20,NZ
same,susceptibility category,isolate AB21,R (Resistant ≤15)
same,Inhibition zone,isolate AB21,7 mm
same,susceptibility category,isolate AB22,R (Resistant ≤15)
same,Inhibition zone,isolate AB22,NZ
same,susceptibility category,isolate AB23,R (Resistant ≤15)
same,Inhibition zone,isolate AB23,NZ
same,susceptibility category,isolate AB24,R (Resistant ≤15)
same,Inhibition zone,isolate AB24,NZ
same,susceptibility category,isolate AB25,R (Resistant ≤15)
same,Inhibition zone,isolate AB25,13 mm
same,susceptibility category,isolate AB26,R (Resistant ≤15)
same,Inhibition zone,isolate AB26,12 mm
same,susceptibility category,isolate AB27,R (Resistant ≤15)
same,Inhibition zone,isolate AB27,NZ
same,susceptibility category,isolate AB28,R (Resistant ≤15)
same,Inhibition zone,isolate AB28,NZ
same,susceptibility category,isolate AB29,R (Resistant ≤15)
same,Inhibition zone,isolate AB29,NZ
same,susceptibility category,isolate AB30,R (Resistant ≤15)
same,Inhibition zone,isolate AB30,9 mm
same,susceptibility category,isolate AB31,R (Resistant ≤15)
same,Inhibition zone,isolate AB31,NZ
same,susceptibility category,isolate AB32,R (Resistant ≤15)
same,Inhibition zone,isolate AB32,8 mm
same,susceptibility category,isolate AB33,R (Resistant ≤15)
same,Inhibition zone,isolate AB33,9 mm
"CC(C)(O/N=C(\C(=O)N[C@@H]1C(=O)N2C(C(=O)[O-])=C(C[n+]3ccccc3)CS[C@H]12)c1csc(N)n1)C(=O)O [CAZ, Ceftazidime]",Inhibition zone,isolate AB1,20 mm
same,Inhibition zone,isolate AB2,17 mm
same,Inhibition zone,isolate AB3,26 mm
same,Inhibition zone,isolate AB4,21 mm
same,Inhibition zone,isolate AB5,9 mm
same,Inhibition zone,isolate AB6,28 mm
same,Inhibition zone,isolate AB7,NZ
same,Inhibition zone,isolate AB8,NZ
same,Inhibition zone,isolate AB9,21 mm
same,Inhibition zone,isolate AB10,NZ
same,Inhibition zone,isolate AB11,NZ
same,Inhibition zone,isolate AB12,NZ
same,Inhibition zone,isolate AB13,NZ
same,Inhibition zone,isolate AB14,NZ
same,Inhibition zone,isolate AB15,NZ
same,Inhibition zone,isolate AB16,32 mm
same,Inhibition zone,isolate AB17,12 mm
same,Inhibition zone,isolate AB18,NZ
same,Inhibition zone,isolate AB19,NZ
same,Inhibition zone,isolate AB20,NZ
same,Inhibition zone,isolate AB21,NZ
same,Inhibition zone,isolate AB22,NZ
same,Inhibition zone,isolate AB23,NZ
same,Inhibition zone,isolate AB24,NZ
same,Inhibition zone,isolate AB25,17 mm
same,Inhibition zone,isolate AB26,15 mm
same,Inhibition zone,isolate AB27,8 mm
same,Inhibition zone,isolate AB28,8 mm
same,Inhibition zone,isolate AB29,NZ
same,Inhibition zone,isolate AB30,NZ
same,Inhibition zone,isolate AB31,8 mm
same,Inhibition zone,isolate AB32,8 mm
same,Inhibition zone,isolate AB33,22 mm
"O=C(N[C@H](CO)[C@H](O)c1ccc([N+](=O)[O-])cc1)C(Cl)Cl [CHL, Chloramphenicol]",Inhibition zone,isolate AB1,NZ
same,Inhibition zone,isolate AB2,24 mm
same,Inhibition zone,isolate AB3,26 mm
same,Inhibition zone,isolate AB4,23 mm
same,Inhibition zone,isolate AB5,8 mm
same,Inhibition zone,isolate AB6,NZ
same,Inhibition zone,isolate AB7,NZ
same,Inhibition zone,isolate AB8,7 mm
same,Inhibition zone,isolate AB9,24 mm
same,Inhibition zone,isolate AB10,NZ
same,Inhibition zone,isolate AB11,NZ
same,Inhibition zone,isolate AB12,NZ
same,Inhibition zone,isolate AB13,NZ
same,Inhibition zone,isolate AB14,NZ
same,Inhibition zone,isolate AB15,10 mm
same,Inhibition zone,isolate AB16,30 mm
same,Inhibition zone,isolate AB17,13 mm
same,Inhibition zone,isolate AB18,8 mm
same,Inhibition zone,isolate AB19,8 mm
same,Inhibition zone,isolate AB20,NZ
same,Inhibition zone,isolate AB21,NZ
same,Inhibition zone,isolate AB22,NZ
same,Inhibition zone,isolate AB23,NZ
same,Inhibition zone,isolate AB24,8 mm
same,Inhibition zone,isolate AB25,NZ
same,Inhibition zone,isolate AB26,25 mm
same,Inhibition zone,isolate AB27,NZ
same,Inhibition zone,isolate AB28,14 mm
same,Inhibition zone,isolate AB29,12 mm
same,Inhibition zone,isolate AB30,11 mm
same,Inhibition zone,isolate AB31,8 mm
same,Inhibition zone,isolate AB32,9 mm
same,Inhibition zone,isolate AB33,18 mm
"CO/N=C(\C(=O)N[C@@H]1C(=O)N2C(C(=O)O)=C(COC(C)=O)CS[C@H]12)c1csc(N)n1 [CTX, Cefotaxime]",Inhibition zone,isolate AB1,NZ
same,Inhibition zone,isolate AB2,NZ
same,Inhibition zone,isolate AB3,15 mm
same,Inhibition zone,isolate AB4,8 mm
same,Inhibition zone,isolate AB5,NZ
same,Inhibition zone,isolate AB6,17 mm
same,Inhibition zone,isolate AB7,NZ
same,Inhibition zone,isolate AB8,NZ
same,Inhibition zone,isolate AB9,11 mm
same,Inhibition zone,isolate AB10,NZ
same,Inhibition zone,isolate AB11,NZ
same,Inhibition zone,isolate AB12,NZ
same,Inhibition zone,isolate AB13,NZ
same,Inhibition zone,isolate AB14,NZ
same,Inhibition zone,isolate AB15,NZ
same,Inhibition zone,isolate AB16,32 mm
same,Inhibition zone,isolate AB17,NZ
same,Inhibition zone,isolate AB18,NZ
same,Inhibition zone,isolate AB19,NZ
same,Inhibition zone,isolate AB20,NZ
same,Inhibition zone,isolate AB21,NZ
same,Inhibition zone,isolate AB22,NZ
same,Inhibition zone,isolate AB23,NZ
same,Inhibition zone,isolate AB24,NZ
same,Inhibition zone,isolate AB25,16 mm
same,Inhibition zone,isolate AB26,NZ
same,Inhibition zone,isolate AB27,NZ
same,Inhibition zone,isolate AB28,NZ
same,Inhibition zone,isolate AB29,NZ
same,Inhibition zone,isolate AB30,NZ
same,Inhibition zone,isolate AB31,8 mm
same,Inhibition zone,isolate AB32,8 mm
same,Inhibition zone,isolate AB33,21 mm
